Experimental data taken from patent EP0542363A2 (GLAXO GROUP LIMITED, priority 1991, dated 1993).
Structures can show the parent of a compound that is named as a salt.

These compounds were tested on human gel filtered platelets (GFP) (assay: Inhibition of ADP-induced blood platelet aggregation in gel filtered platelets (Born-type optical aggregometer)). Details: 5 min; human GFP approx. 300,000 platelets/µl; human fibrinogen 0.5mg/ml, Ca2+ 1mM, Mg2+ 0.5mM; compounds incubated 5 minutes at 37°C; ADP 1 x 10⁻⁵M; concentration producing 50% inhibition of platelet aggregation; read-out: IC₅₀.
Assay type: cell-based
Description: Inhibition of blood platelet aggregation by compounds of the invention was determined according to the following procedure. Citrated whole blood (1 part 3.8% trisodium citrate : 9 parts blood) was obtained from human volunteers, free of medication for at least 10 days prior to collection. The blood was incubated with 0.1mM aspirin and 0.05µM prostacyclin and then centrifuged at 1000g for 4 minutes (20°C). The supernatant platelet rich plasma (PRP) was further centrifuged at 1300g for 10 minutes (20°C) to sediment the platelets. The supernatant was discarded and the pellet washed with a physiological salt solution (HEPES 5mM, NaHCO₃ 12mM, NaCl 140mM, KH₂PO₄ 0.74mM, D-Glucose 5.6mM, KCl 2.82mM and BSA 20g/l, pH 7.4) to remove residual plasma. After washing, the pellet was resuspended in physiological salt solution and then applied to a sepharose CL-2B column, pre-equilibrated with physiological salt solution at room temperature. The platelets (GFP) eluted within the void volume and were diluted to approximately 300,000 platelets/µl in buffer. Purified human fibrinogen (Knight L.C. et al, 1981 Thromb. Haemostasis, 46(3), 593-596) was added to a final concentration of 0.5mg/ml together with Ca2+ and Mg2+ at 1mM and 0.5mM respectively. […] The potency of the compounds may be expressed as an IC₅₀ value defined as the concentration of compound required to produce 50% inhibition of platelet aggregation.

Going from `C[C@@H]1CN(CC(=O)O)CC[C@@H]1N1CCN(c2ccc(C(=N)N)cc2)CC1` (relative stereo) [Example 30, cis-4-[4-[4-Aminoiminomethyl)phenyl]-1-piperazinyl]-3-methyl-1-piperidineacetic acid trihydrochloride salt] to `CC1CN(c2ccc(C(=N)N)cc2)CCN1C1CCN(CC(=O)O)CC1` (centres unmarked) [Example 20, trifluoroacetate salt], the IC50 rises from 23 nM to 71 nM (3.1-fold).

`C[N@+]1(CC(=O)O)CC[C@H](N2CCN(c3ccc(C(=N)N)cc3)CC2)CC1` [Example 16a, trans-4-[4-[4-(Aminoiminomethyl)phenyl]-1-piperazinyl]-1-(2-hydroxy-2-oxoethyl)-1-methylpiperidinium trifluoroacetate salt] and `C[N@+]1(CC(=O)O)CC[C@H](C2CCN(c3ccc(C(=N)N)cc3)CC2)CC1` [Example 21, trans-4-[1-[4-(Aminoiminomethyl)phenyl]-4-piperidinyl]-1-(2-hydroxy-2-oxoethyl)-1-methylpiperidinium trifluoroacetate salt] are within 1.5-fold of each other in IC50: 44 nM for the first, 41 nM for the second.

First: NC(=NO)c1ccc(N2CCN(C3CCN(CC(=O)O)CC3)CC2)cc1 [Example 17, 4-[4-[4-[Amino(hydroxyimino)methyl]phenyl]-1-piperazinyl]-1-piperidineacetic acid trifluoroacetate]
Second: COC(=O)NC(=N)c1ccc(N2CCN(C3CCN(CC(=O)O)CC3)CC2)cc1 [Example 34, 4-[4-[4-[Imino[(methoxycarbonyl)amino]methyl]phenyl]-1-piperazinyl]-1-piperidineacetic acid trifluoroacetate salt]
The IC50 of the first is 3.5-fold higher: 5660 nM for the first, 1600 nM for the second.

Compared with `N=C(NCC(F)(F)F)c1ccc(N2CCN(C3CCN(CC(=O)O)CC3)CC2)cc1` [Example 18, 4-[4-[4-[Imino[(2,2,2-trifluoroethyl)amino]methyl]phenyl]-1-piperazinyl]-1-piperidineacetic acid trifluoroacetate salt], `CCOC(=O)CN1CCC(N2CCN(c3ccc(C(=N)N)cc3)CC2)CC1` [Example 23, trifluoroacetate salt] is 51-fold higher in IC50: 316 nM for the first, 16200 nM for the second.

Compared with `N=C(N)c1ccc(N2CCN(C3CCN(CC(=O)O)CC3)CC2)cn1` [Example 19, trifluoroacetate salt], `N=C(N)c1ccc(N2CCN(C3CCN(CC(=O)O)CC3)CC2)nc1` [Example 41, trifluoroacetate salt] is 2.5-fold lower in IC50: 76 nM for the first, 30 nM for the second.

Going from `N=C(N)c1ccc(C2CCN(C3CCN(CC(=O)O)CC3)CC2)cc1` [Example 22, trifluoroacetate salt] to `N=C(N)c1ccc(N2CCN(C3CCN(CC(=O)O)CC3)CC2)c(Br)c1` [Example 24, trifluoroacetate salt], the IC50 rises from 71 nM to 342 nM (4.8-fold). The first is the more potent here.

Going from `Cc1cc(C(=N)N)ccc1N1CCN(C2CCN(CC(=O)O)CC2)CC1` [Example 25, trifluoroacetate salt] to `CC(C(=O)O)N1CCC(N2CCN(c3ccc(C(=N)N)cc3)CC2)CC1` (centres unmarked) [Example 26], the IC50 falls from 569 nM to 177 nM (3.2-fold).

Same assay, conditions: human GFP approx. 300,000 platelets/µl; human fibrinogen 0.5mg/ml, Ca2+ 1mM, Mg2+ 0.5mM; compounds incubated 5 minutes at 37°C; ADP 1 x 10⁻⁵M; concentration producing 50% inhibition of platelet aggregation; read-out: IC₅₀

“4-[4-[4-[(Diethylphosphinyl)amino]iminomethyl]phenyI]-1-piperazinyl]-1- piperidineacetic acid trifluoroacetate salt [Example 36]” showed an IC50 of 2680 nM.

Same assay, conditions: human GFP approx. 300,000 platelets/µl; human fibrinogen 0.5mg/ml, Ca2+ 1mM, Mg2+ 0.5mM; compounds incubated 5 minutes at 37°C; ADP 1 x 10⁻⁵M; concentration producing 50% inhibition of platelet aggregation; trifluoroacetate salt; read-out: IC₅₀

`N=C(N)c1ccc(N2CCN(C3CC[N+](CC(=O)O)(Cc4ccccc4)CC3)CC2)cc1` (stereo not drawn) [Example 28, trans-4-[4-[4-(Aminoiminomethyl)phenyl]-1-piperazinyl]-1-(2-hydroxy-2-oxoethyl)-1-(phenylmethyl)piperidinium trifluoroacetate salt] showed an IC50 of 38 nM.
`N=C(N)c1ccc(N2CCN(C3CC[N+](CC(=O)O)(Cc4ccccc4)CC3)CC2)cc1` (stereo not drawn) [Example 29, cis-4-[4-[4-(Aminoiminomethyl)phenyl]-1-piperazinyl]-1-(2-hydroxy-2-oxoethyl)-1-(phenylmethyl)piperidinium trifluoroacetate salt] gave an IC50 of 354 nM.
